Experimental data reported in patent US20210251228A1, “METHODS FOR REPELLING DROSOPHILA SPECIES USING 2-PENTYLFURAN” (The United States of America, as represented by the …, priority 2020, published 2021).
Structures can show the parent of a compound that is named as a salt.

tested on: Drosophila suzukii antennae; test: Coupled GC-EAD of bread dough headspace volatiles on SWD antennae; details: adult female SWD antennae; adsorbent extract of bread dough; authentic standards 10 ng/μl
Protocol: Adsorbent Sampling from Bread Dough: The bread dough bait consisted of whole-wheat flour (17.25 g), sugar (2 g), dry active bread yeast (0.325 g), apple cider vinegar (1 ml), and water (25 ml) (Cha, D. H., et al., J. Econ. Entomol., 111: 645-652 (2018a)). Headspace volatiles were collected from 10 g bread dough ball placed in a screened specimen cup (130 ml) by using 2.41 closed volatile collection chambers (ARS, Inc., Gainesville, Fla.) with one air inlet adapter (7 mm ID) on the top and an outlet adapter (7 mm ID) on the bottom wall. Clean air from a filtering and delivery system (ARS Inc., Gainesville, Fla.) was pushed into the chamber at 0.7 L/min through the top inlet port, and volatiles from the dough were pushed out through volatile traps (activated charcoal adsorbent filters, ORBO™32-small, Supelco Inc., Bellefonte, Pa.) on the bottom of the chamber. An additional ORBO™ filter was used to ensure that no breakthrough occurred. For each sample of dough (2 dough samples total), adsorbent collections were made over a 2-day period at room temperature using the same volatile trap. Volatiles were eluted with 600 μl methylene chloride every 24 h from the filters of a given dough sample and combined across the total of the collecting days (from 2 dough samples). The combined extract was kept at −20° C. and subjected to as chromatography-electroantennographic detection (GC-EAD) and gas chromatography-mass spectrometry (GC-MS) analyses.
Coupled Gas Chromatographic-Electroantennographic Detection (GC-EAD): Coupled GC-EAD analysis was performed as described previously (Cha, D. H., J. Chem. Ecol., 34: 1180-1189 (2008); Cha, D. H., et al., J. Chem. Ecol., 38: 1419-1431 (2012)) using a Hewlett Packard 5890 Series II gas chromatograph equipped with either a non-polar DB-5 ms capillary column (30 m×0.25 mm ID, 0.25 μm film thickness; Agilent Technologies, Wilmington, Del.) or polar DB-WAXetr capillary column (30 m×0.25 mm ID, 0.25 μm film thickness; Agilent Technologies, Wilmington, Del.) in the splitless mode with 1 min sampling time. The oven temperature was programmed at 40° C. for 5 min, then increased by 15° C./min to 250° C., and held for 5 min. Injector and detector temperatures were set at 250° C. Nitrogen gas was the carrier at a flow of 2 ml/min. The column effluent was split 1:1 in the oven via a “Y” glass splitter (Supelco). One arm of the splitter led to the flame ionization detector (FID) (250° C.) and the other to the heated EAD port (250° C.). Whole head preparations were made of individual flies, age 5-9 day, for GC-EAD analysis (Cha et al. 2012). The head was separated from the body and its antennae positioned between two gold wire electrodes immersed in saline filled (Drosophila ringer solution; 46 mmol NaCl, 182 mmol KCl, 3 mmol CaCl2, and 10 mmol Tris HCl at pH 7.2) micropipettes in an acrylic holder. The antennal holder was placed inside a humidified condenser and maintained at 5° C. The output signal from the antenna was amplified by a customized high input impedance DC amplifier and recorded on an HP 3390A integrator.
Chemical Analysis: GC-MS was carried out with an Agilent 5975MS coupled with a Agilent 6890GC equipped with either a DB-5 ms capillary column (30 m×0.25 mm ID, 0.25 μm film thickness; Agilent Technologies, Wilmington, Del.) or DB-WAXetr capillary column (30 m×0.25 mm ID, 0.25 μm film thickness; Agilent Technologies, Wilmington, Del.). Helium was the carrier gas (1.0 ml/min constant flow). The GC temperature program was the same as used for the GC-EAD analyses. The MS transfer-line was held at 260° C., the MS source at 230° C., and the MS quad at 150° C. Mass spectra were taken in EI mode (at 70 eV) in the range from 40 m/z to 350 m/z with a scanning rate of 4.58 scan/s. GC-MS data were processed with the MDS-Chemstation software (Agilent Technologies). […]

Row | SMILES | GC-EAD activity (antennal response)
1 | CC(C)CCOC=O [isoamyl formate] | active
2 | C=CC(O)CCCCC (stereo not drawn) [1-octen-3-ol, reference compound] | active
3 | CCCCCO [1-pentanol] | active
4 | CC(=O)C(C)O (stereo not drawn) [acetoin] | active
5 | CCC(C)COC(C)=O (stereo not drawn) [2-methylbutyl acetate] | active
6 | CCCCCOC(C)=O [pentyl acetate] | active
7 | CCCCCCO [1-hexanol] | active
8 | CCCCCCCCC=O [nonanal] | active
9 | CCCCCCCC(C)=O [2-nonanone] | active
10 | CCCCCCCC(=O)OCC [ethyl octanoate] | active
11 | CC(O)C(C)O (stereo not drawn) [2,3-butanediol] | active
12 | CCCCCCCO [1-heptanol] | active
13 | CC(=O)OCCC(C)C [isoamyl acetate] | active
14 | OCCc1ccccc1 [2-phenylethanol] | active

tested on: SWD; test: not given; details: 1-octen-3-ol released near ripe raspberries; cited from earlier work

Row | SMILES | effect on infestation of ripe raspberries by SWD
15 | C=CC(O)CCCCC (stereo not drawn) [1-octen-3-ol, reference compound] | significantly reduced infestation
